The values below come from patent publication US20070219203A1, “Arylalkylamino-substituted quinazoline analogues” (Neurogen Corporation, priority 2004, published 2007).

The experiment deals with T1, human capsaicin receptor (Homo sapiens, UniProt Q8NER1).
T1 construct: expressed in transfected cells
Nature of the experiment: Calcium mobilization assay, antagonist activity (Example 6). It counts as cell-based. As to conditions: 50% decrease in fluorescence response of cells expressing human capsaicin receptor exposed to capsaicin. How it is done:
A cDNA encoding full length human capsaicin receptor (SEQ ID NO:1, 2 or 3 of U.S. Pat. No. 6,482,611) is subcloned in the plasmid pBK-CMV (Stratagene, La Jolla, Calif.) for recombinant expression in mammalian cells.
Human embryonic kidney (HEK293) cells are transfected with the pBK-CMV expression construct encoding the full length human capsaicin receptor using standard methods. The transfected cells are selected for two weeks in media containing G418 (400 μg/ml) to obtain a pool of stably transfected cells. Independent clones are isolated from this pool by limiting dilution to obtain clonal stable cell lines for use in subsequent experiments.
Cells transfected with expression plasmids (as described in Example 4) and thereby expressing human capsaicin receptor are seeded and grown to 70-90% confluency in FALCON black-walled, clear-bottomed 96-well plates (#3904, BECTON-DICKINSON, Franklin Lakes, N.J.). The culture medium is emptied from the 96 well plates and […] calcium sensitive dye (Molecular Probes, Eugene, Oreg.) is added to each well (dye solution: 1 mg […], 440 μL DMSO and 440 μl 20% pluronic acid in DMSO, diluted 1:250 in Krebs-Ringer HEPES (KRH) buffer (25 mM HEPES, 5 mM KCl, 0.96 mM NaH2PO4, 1 mM MgSO4, 2 mM CaCl2, 5 mM glucose, 1 mM probenecid, pH 7.4), 50 μl diluted solution per well). Plates are covered with aluminum foil and incubated at 37° C. for 1-2 hours in an environment containing 5% CO2. After the incubation, the dye is emptied from the plates, and the cells are washed once with KRH buffer, and resuspended in KRH buffer.
To measure the ability of a test compound to agonize or antagonize a calcium mobilization response in cells expressing capsaicin receptors to capsaicin or other vanilloid agonist, the EC50 of the agonist capsaicin is first determined. An additional 20 μl of KRH buffer and 1 μl DMSO is added to each well of cells, prepared as described above. 100 μl capsaicin in KRH buffer is automatically transferred by the FLIPR instrument to each well. Capsaicin-induced calcium mobilization is monitored using either FLUOROSKAN ASCENT (Labsystems; Franklin, Mass.) or FLIPR (fluorometric imaging plate reader system; Molecular Devices, Sunnyvale, Calif.) instruments. Data obtained between 30 and 60 seconds after agonist application are used to generate an 8-point concentration response curve, with final capsaicin concentrations of 1 nM to 3 μM. KALEIDAGRAPH software (Synergy Software, Reading, Pa.) is used to fit the data to the equation: y=a*(1/(1+(b/x)^c)) to determine the 50% excitatory concentration (EC50) for the response. In this equation, y is the maximum fluorescence signal, x is the concentration of the agonist or antagonist (in this case, capsaicin), a is the Emax, b corresponds to the EC50 value and c is the Hill coefficient. Determination of Agonist Activity
Test compounds are dissolved in DMSO, diluted in 20 μl KRH buffer so that the final concentration of test compounds in the assay well is between 1 μM and 5 μM, and added to cells prepared as described above. The 96 well plates containing prepared cells and test compounds are incubated in the dark, at room temperature for 0.5 to 6 hours. It is important that the incubation not continue beyond 6 hours. Just prior to determining the fluorescence response, 100 μl capsaicin in KRH buffer at twice the EC50 concentration determined as described above is automatically added by the FLIPR instrument to each well of the 96 well plate for a final sample volume of 200 μl and a final capsaicin concentration equal to the EC50. The final concentration of test compounds in the assay wells is between 1 μM and 5 μM. […] The concentration of antagonist required to provide a 50% decrease, relative to the response observed in the presence of capsaicin and without antagonist, is the IC50 for the antagonist, and is preferably below 1 micromolar, 100 nanomolar, 10 nanomolar or 1 nanomolar.

T1 sequence (Q8NER1 whole entry): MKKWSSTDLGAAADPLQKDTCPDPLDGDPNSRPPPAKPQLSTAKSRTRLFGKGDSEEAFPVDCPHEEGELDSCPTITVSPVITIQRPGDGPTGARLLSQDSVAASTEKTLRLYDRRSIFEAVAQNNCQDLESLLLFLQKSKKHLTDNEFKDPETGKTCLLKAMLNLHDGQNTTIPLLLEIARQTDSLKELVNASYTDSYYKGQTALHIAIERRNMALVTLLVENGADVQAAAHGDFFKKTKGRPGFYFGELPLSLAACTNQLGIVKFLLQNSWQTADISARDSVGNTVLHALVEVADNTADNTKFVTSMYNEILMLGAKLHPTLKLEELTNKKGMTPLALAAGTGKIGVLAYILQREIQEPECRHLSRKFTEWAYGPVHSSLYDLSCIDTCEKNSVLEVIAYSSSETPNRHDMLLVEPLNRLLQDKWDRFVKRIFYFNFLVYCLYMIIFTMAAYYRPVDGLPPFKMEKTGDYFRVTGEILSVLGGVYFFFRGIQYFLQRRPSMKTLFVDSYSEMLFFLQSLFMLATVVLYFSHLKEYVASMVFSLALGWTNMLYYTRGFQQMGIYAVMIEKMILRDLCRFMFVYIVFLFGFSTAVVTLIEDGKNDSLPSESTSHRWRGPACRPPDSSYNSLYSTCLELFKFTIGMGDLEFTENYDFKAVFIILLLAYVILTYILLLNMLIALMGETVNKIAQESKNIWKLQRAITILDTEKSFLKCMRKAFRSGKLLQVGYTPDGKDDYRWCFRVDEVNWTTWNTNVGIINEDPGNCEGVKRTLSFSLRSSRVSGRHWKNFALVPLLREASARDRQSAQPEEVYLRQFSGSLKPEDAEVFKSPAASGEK

For the compound `CCOCc1nc(NCCc2ccccc2C(F)(F)F)c2ccc(-c3ncccc3Cl)nc2n1` [Compound 56, 7-(3-chloropyridin-2-yl)-2-(ethoxymethyl)-N-{2-[2-(trifluoromethyl)phenyl]ethyl}pyrido [2,3-d]pyrimidin-4-amine], the IC50 (Table I) was at most 1000 nM.
Same read-out and setting: the value for `CCOCc1nc(NCCc2cccc(OC)c2)c2ccc(-c3ncccc3Cl)nc2n1` [Compound 57, 7-(3-chloropyridin-2-yl)-2-(ethoxymethyl)-N-[2-(3-methoxyphenyl)ethyl]pyrido[2,3-d]pyrimidin-4-amine] was at most 1000 nM; that for `Cc1ccccc1CCNc1nc(COCC(C)C)nc2nc(-c3ncccc3Cl)ccc12` [Compound 58, 7-(3-chloropyridin-2-yl)-2-(isobutoxymethyl)-N-[2-(2-methylphenyl)ethyl]pyrido[2,3-d]pyrimidin-4-amine] was at most 1000 nM.
As to `CC(C)COCc1nc(NC(=O)Cc2ccc(F)cc2)c2ccc(-c3ncccc3C(F)(F)F)nc2n1` [Compound 59, 2-(4-fluorophenyl)-N-{2-(isobutoxymethyl)-7-[3-(trifluoromethyl)pyridin-2-yl]pyrido[2,3-d]pyrimidin-4-yl}acetamide], the IC50 (Table I) is at most 1000 nM.
With `CC(C)COCc1nc(NCC(=O)c2cccc(Cl)c2)c2ccc(-c3ncccc3C(F)(F)F)nc2n1` [Compound 60, 1-(3-chlorophenyl)-2-({2-(isobutoxymethyl)-7-[3-(trifluoromethyl)pyridin-2-yl]pyrido[2,3-d]pyrimidin-4-yl}amino)ethanone], the IC50 (Table I) is at most 1000 nM.
The same measure, in the same setting: for `CC(C)COCc1nc(NC2Cc3ccccc3C2)c2ccc(-c3ncccc3Cl)nc2n1` [Compound 61, 7-(3-chloropyridin-2-yl)-N-(2,3-dihydro-1H-inden-2-yl)-2-(isobutoxymethyl)pyrido[2,3-d]pyrimidin-4-amine] the value was at most 1000 nM; for `CCOCc1nc(NC2Cc3ccccc3C2)c2ccc(-c3ncccc3Cl)nc2n1` [Compound 62, 7-(3-chloropyridin-2-yl)-N-(2,3-dihydro-1H-inden-2-yl)-2-(ethoxymethyl)pyrido[2,3-d]pyrimidin-4-amine], at most 1000 nM.
For the compound `FC(F)(F)c1cccnc1-c1ccc2c(NCCCc3ccccc3)ncnc2c1` [Compound 63, (3-Phenyl-propyl)-[7-(3-trifluoromethyl-pyridin-2-yl)-quinazolin-4-yl]-amine], for the setting “Table II”, the half-maximal inhibitory concentration (IC50) is at most 1000 nM.
The same measure, in the same setting: the value for `Cc1ccc(CCNc2ncnc3cc(-c4ncccc4C(F)(F)F)ccc23)cc1` [Compound 64, (2-p-Tolyl-ethyl)-[7-(3-trifluoromethyl-pyridin-2-yl)-quinazolin-4-yl]-amine] was at most 1000 nM; that for `Cc1ccccc1CCNc1ncnc2cc(-c3ncccc3C(F)(F)F)ccc12` [Compound 65, (2-o-Tolyl-ethyl)-[7-(3-trifluoromethyl-pyridin-2-yl)-quinazolin-4-yl]-amine] was at most 1000 nM; that for `Cc1cccc(CCNc2ncnc3cc(-c4ncccc4C(F)(F)F)ccc23)c1` [Compound 66, (2-m-Tolyl-ethyl)-[7-(3-trifluoromethyl-pyridin-2-yl)-quinazolin-4-yl]-amine] was at most 1000 nM.
Still for that read-out and setting: for `CCC(CNc1ncnc2cc(-c3ncccc3C(F)(F)F)ccc12)c1ccccc1` (stereo not drawn) [Compound 68, (2-Phenyl-butyl)-[7-(3-trifluoromethyl-pyridin-2-yl)-quinazolin-4-yl]-amine] the value was at most 1000 nM; for `CCCC(CNc1ncnc2cc(-c3ncccc3C(F)(F)F)ccc12)c1ccccc1` (stereo not drawn) [Compound 69, (2-Phenyl-pentyl)-[7-(3-trifluoromethyl-pyridin-2-yl)-quinazolin-4-yl]-amine], at most 1000 nM.
Same read-out and setting: the value for `CCCCC(CNc1ncnc2cc(-c3ncccc3C(F)(F)F)ccc12)c1ccccc1` (stereo not drawn) [Compound 70, (2-Phenyl-hexyl)-[7-(3-trifluoromethyl-pyridin-2-yl)-quinazolin-4-yl]-amine] was at most 1000 nM; that for `CC(C)CC(CNc1ncnc2cc(-c3ncccc3C(F)(F)F)ccc12)c1ccccc1` (stereo not drawn) [Compound 72, (4-Methyl-2-phenyl-pentyl)-[7-(3-trifluoromethyl-pyridin-2-yl)-quinazolin-4-yl]-amine] was at most 1000 nM.
